Source: patent US20120020876A1, “HEDGEHOG PATHWAY INHIBITORS” (priority 2009, published 2012)

Tested on: KPC pancreatic tumors
Experiment: Monitoring of KPC pancreatic tumor volume by 3D high resolution ultrasonography
Assay type: in vivo, mouse
Details: gemcitabine 100 mg/kg twice weekly, Compound A 40 ug/kg/day, or both
Text: For survival studies, mice were enrolled following the detection of 5-10 mm diameter tumor by ultrasound. Tumors were quantified by 3D ultrasound twice weekly until endpoint. High resolution ultrasound (US) imaging of normal and diseased mouse pancreas using the Vevo 770 System with a 35 MHz RMV scanhead (Visual Sonics, Inc.). 3D images were produced using the 3D motor arm to collect serial images at 0.25 mm intervals through the thickness of the tumor. Tumors were outlined on each 2D image and reconstructed to quantify the 3D volume using the integrated Vevo 770 software package.

Compound: CC1=C2C[C@H]3[C@@H](CC[C@@H]4C[C@H](NS(C)(=O)=O)CC[C@@]43C)[C@@H]2CC[C@@]2(C1)O[C@@H]1C[C@H](C)CN[C@H]1[C@H]2C.Cl [Compound A]
- objective (ultrasonographic) response, responding mice/treated mice: 2/10
